Source: patent US20090203683A1, “BICYCLIC HETEROCYCLES, PHARMACEUTICAL COMPOSITIONS CONTAINING THEM, THEIR USE, AND PROCESSES FOR PREPARING THEM” (BOEHRINGER INGELHEIM PHARMA GMBH & CO. KG, priority 2000, published 2009)

What was measured:
human EGF-R = biological target: T1, human EGF-R (Homo sapiens, UniProt P00533); experiment: Inhibition of EGF-dependent proliferation of F/L-HERc cells (Cell Titer 96 Aqueous Non-Radioactive Cell Proliferation Assay); format: cell-based; conditions: F/L-HERc cells (murine IL-3-dependent line expressing human EGF-R), stimulated with EGF 20 ng/ml, 48 hours at 37° C., relative cell number as % of control
T1 construct: expressed in transfected cells; host or cells: F/L-HERc cells (murine IL-3-dependent FDC-P1 cells transduced with retroviral vector LXSN carrying human EGF-R cDNA; packaging line GP+E86)
T1 sequence (P00533 25-1210): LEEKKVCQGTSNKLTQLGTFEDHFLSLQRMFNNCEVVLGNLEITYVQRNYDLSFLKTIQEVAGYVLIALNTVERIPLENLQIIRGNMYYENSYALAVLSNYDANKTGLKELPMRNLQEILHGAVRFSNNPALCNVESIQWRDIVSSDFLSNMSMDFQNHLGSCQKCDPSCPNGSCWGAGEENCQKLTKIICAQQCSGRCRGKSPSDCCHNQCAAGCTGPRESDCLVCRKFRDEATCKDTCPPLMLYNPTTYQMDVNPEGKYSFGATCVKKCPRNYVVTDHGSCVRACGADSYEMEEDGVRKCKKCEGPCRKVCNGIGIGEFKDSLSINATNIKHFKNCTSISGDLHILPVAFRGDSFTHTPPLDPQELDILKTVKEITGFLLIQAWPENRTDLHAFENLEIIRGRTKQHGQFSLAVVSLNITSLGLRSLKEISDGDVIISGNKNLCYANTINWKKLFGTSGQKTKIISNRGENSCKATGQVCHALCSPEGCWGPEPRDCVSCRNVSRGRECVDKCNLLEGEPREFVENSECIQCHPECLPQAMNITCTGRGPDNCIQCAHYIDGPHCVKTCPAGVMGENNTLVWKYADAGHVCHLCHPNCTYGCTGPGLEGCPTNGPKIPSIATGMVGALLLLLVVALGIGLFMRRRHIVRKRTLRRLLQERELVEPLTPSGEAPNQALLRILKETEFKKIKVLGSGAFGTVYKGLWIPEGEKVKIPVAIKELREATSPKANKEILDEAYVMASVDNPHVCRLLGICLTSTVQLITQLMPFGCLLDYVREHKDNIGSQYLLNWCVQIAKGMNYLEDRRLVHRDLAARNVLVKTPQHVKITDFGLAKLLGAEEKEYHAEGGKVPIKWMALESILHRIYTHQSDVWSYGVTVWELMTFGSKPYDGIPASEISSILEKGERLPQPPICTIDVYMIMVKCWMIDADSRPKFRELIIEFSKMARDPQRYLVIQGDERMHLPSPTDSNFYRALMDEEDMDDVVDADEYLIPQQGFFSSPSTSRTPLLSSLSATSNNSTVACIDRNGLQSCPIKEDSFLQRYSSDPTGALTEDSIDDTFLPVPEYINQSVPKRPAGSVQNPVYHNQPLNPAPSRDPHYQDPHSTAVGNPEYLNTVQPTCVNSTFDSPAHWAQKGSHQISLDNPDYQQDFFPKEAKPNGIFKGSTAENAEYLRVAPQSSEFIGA
Description: The biological properties of the new compounds were investigated as follows. […] A cell line of murine origin dependent on interleukin-3-(IL-3) which was genetically modified to express functional human EGF-R was used here. The proliferation of these cells known as F/L-HERc can therefore be stimulated either by murine IL-3 or by EGF (cf. T. von Rüden et al. in EMBO J. 7, 2749-2756 (1988) and J. H. Pierce et al. in Science 239, 628-631 (1988)). The starting material used for the F/L-HERc cells was the cell line FDC-P1, the production of which has been described by T. M. Dexter et al. in J. Exp. Med. 152, 1036-1047 (1980). Alternatively, however, other growth-factor-dependent cells may also be used (cf. for example, J. H. Pierce et al. in Science 239, 628-631 (1988); H. Shibuya et al. in Cell 70, 57-67 (1992) and W. S. Alexander in EMBO J. 10, 3683-3691 (1991)). For expressing the human EGF-R cDNA (cf. A. Ullrich et al. in Nature 309, 418-425 (1984)) recombinant retroviruses were used as described by T. von Rüden et al., EMBO J. 7, 2749-2756 (1988), except that the retroviral vector LXSN (cf. A. D. Miller et al. in BioTechniques 7, 980-990 (1989)) was used for the expression of the EGF-R cDNA and the line GP+E86 (cf. D. Markowitz et al. in J. Virol. 62, 1120-1124 (1988)) was used as the packaging cell.
The test was performed as follows. F/L-HERc cells were cultivated in RPMI/1640 medium (BioWhittaker), supplemented with 10% fetal calf serum (FCS, Boehringer Mannheim), 2 mM glutamine (BioWhittaker), standard antibiotics and 20 ng/ml of human EGF (Promega), at 37° C. and 5% CO2—In order to investigate the inhibitory activity of the compounds according to the invention, 1.5×10^4 cells per well were cultivated in triplicate in 96-well dishes in the above medium (200 μl), the cell proliferation being stimulated with either EGF (20 ng/ml) or murine IL-3. The IL-3 used was obtained from culture supernatants of the cell line X63/0 mL-3 (cf. H. Karasuyama et al. in Eur. J. Immunol. 18, 97-104 (1988)). The compounds according to the invention were dissolved in 100% dimethylsulfoxide (DMSO) and added to the cultures in various dilutions, the maximum DMSO concentration being 1%. The cultures were incubated for 48 hours at 37° C.
In order to determine the inhibitory activity of the compounds according to the invention the relative cell number was measured in O.D. units using the Cell Titer 96™ Aqueous Non-Radioactive Cell Proliferation Assay (Promega). The relative cell number was calculated as a percentage of the control (F/LHERc cells without inhibitor) and the concentration of active substance which inhibits the proliferation of the cells by 50% (IC50) was derived therefrom.

Compound COC(=O)[C@@H]1CCCN1CCCOc1cc2c(Nc3cccc(Br)c3)ncnc2cc1OC [2(1), (s)-4-[(3-bromophenyl)amino]-6-[3-(2-methoxycarbonylpyrrolidin-1-yl)propyloxy]-7-methoxyquinazoline] has an IC50 (human EGF-R) of 39 nM.
Compound CCOC(=O)CN(C)CCOc1cc2c(Nc3cccc(Br)c3)ncnc2cc1OC [3(1), 4-[(3-bromophenyl)amino]-6-(2-{N-[(ethoxycarbonyl)methyl]-N-methylamino}ethoxy)-7-methoxyquinazoline] has an IC50 (human EGF-R) of 100 nM.
COC(=O)CN1CCN(CCCOc2cc3c(Nc4ccc(F)c(Cl)c4)ncnc3cc2OC)CC1 [Example 1, 4-(3-chloro-4-fluorophenylamino)-6-{3-[4-(methoxycarbonylmethyl)-1-piperazinyl]propyloxy}-7-methoxyquinazoline] gave an IC50 (human EGF-R) of 46 nM.
CCOC(=O)CN1CCN(CCOc2cc3c(Nc4cccc(Br)c4)ncnc3cc2OC)CC1 [Example 3, 4-[(3-bromophenyl)amino]-6-(2-{4-[(ethoxycarbonyl)methyl]piperazin-1-yl}ethoxy)-7-methoxyquinazoline] gave a melting point of 155 °C and an IC50 (human EGF-R) of 45 nM.
Compound CCOC(=O)CN(CCOc1cc2c(Nc3cccc(Br)c3)ncnc2cc1OC)CC(=O)OCC [3(2), 4-[(3-bromophenyl)amino]-6-(2-{N,N-bis[(ethoxycarbonyl)methyl]amino}ethoxy)-7-methoxyquinazoline] has an IC50 (human EGF-R) of 70 nM.
COC(=O)CC(CC(=O)OC)N1CCN(CCOc2cc3c(Nc4cccc(Br)c4)ncnc3cc2OC)CC1 [3(4), 4-[(3-bromophenyl)amino]-6-[2-(4-{1-[(methoxycarbonyl)methyl]-2-(methoxycarbonyl)ethyl}piperazin-1-yl)ethoxy]-7-methoxyquinazoline] gave an IC50 (human EGF-R) of 77 nM.
CCOC(=O)CN1CCN(CC(O)COc2cc3c(Nc4cccc(Br)c4)ncnc3cc2OC)CC1 (centres unmarked) [Example 4, 4-[(3-bromophenyl)amino]-6-(3-{4-[(ethoxycarbonyl)methyl]piperazin-1-yl}-2-hydroxypropyloxy)-7-methoxyquinazoline] showed a melting point of 118 to 122 °C and an IC50 (human EGF-R) of 33 nM.
In the case of CCOC(=O)CN1CCC[C@H]1COc1cc2c(Nc3cccc(Br)c3)ncnc2cc1OC [1(2), (s)-4-[(3-bromophenyl)amino]-6-({1-[(ethoxycarbonyl)methyl]pyrrolidin-2-yl}methoxy)-7-methoxyquinazoline], the IC50 (human EGF-R) is reported as 20 nM.
For CCOC(=O)CN(C)CCCOc1cc2c(Nc3ccc(F)c(Cl)c3)ncnc2cc1OC [Example 2, 4-(3-chloro-4-fluorophenylamino)-6-{3-[N-(ethoxycarbonylmethyl)-N-methylamino]propyloxy}-7-methoxyquinazoline], the IC50 (human EGF-R) was 230 nM.
